{"source": "patent US8134015B2", "about": "“Compound inhibiting in vivo phosphorous transport and medicine containing the same” (Kyowa Hakko Kirin Co., Ltd., priority 2003, dated 2012)"}
{"molecular_target": "T1, rat NaPi-2b (Rattus norvegicus, UniProt Q9JJ09)", "T1 construct": "expressed in transfected cells; host or cells: Xenopus oocytes injected with cRNA", "T1 sequence (Q9JJ09 1-695)": "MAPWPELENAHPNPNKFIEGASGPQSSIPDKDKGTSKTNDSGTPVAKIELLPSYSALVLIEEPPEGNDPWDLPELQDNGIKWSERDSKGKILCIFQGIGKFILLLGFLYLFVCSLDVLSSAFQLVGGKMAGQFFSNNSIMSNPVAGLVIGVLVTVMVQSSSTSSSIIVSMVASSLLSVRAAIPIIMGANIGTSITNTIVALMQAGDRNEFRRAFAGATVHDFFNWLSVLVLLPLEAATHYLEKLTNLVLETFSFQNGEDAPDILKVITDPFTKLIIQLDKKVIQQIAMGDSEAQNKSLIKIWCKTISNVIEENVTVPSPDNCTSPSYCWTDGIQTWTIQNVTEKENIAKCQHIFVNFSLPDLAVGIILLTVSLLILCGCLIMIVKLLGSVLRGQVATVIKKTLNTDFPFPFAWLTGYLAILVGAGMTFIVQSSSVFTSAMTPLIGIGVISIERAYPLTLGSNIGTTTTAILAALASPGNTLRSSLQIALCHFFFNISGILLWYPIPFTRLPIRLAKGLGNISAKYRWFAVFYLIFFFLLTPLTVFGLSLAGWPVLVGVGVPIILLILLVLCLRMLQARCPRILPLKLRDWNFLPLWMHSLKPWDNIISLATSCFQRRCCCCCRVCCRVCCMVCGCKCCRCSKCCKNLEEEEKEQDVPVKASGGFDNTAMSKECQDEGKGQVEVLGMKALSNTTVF", "assay": "Sodium-dependent phosphate uptake of Xenopus oocytes which expressed NaPi-2b (32P)", "format": "cell-based", "conditions": "Xenopus oocytes expressing rat NaPi-2b, 32P radioactive phosphorus; read-out: IC50 (phosphate uptake inhibitory activity)", "in_short": "(§1)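 Inhibition at 300 μM and 100 μM was read off one inhibition curve of 32P phosphate uptake. Uptake was measured in Xenopus oocytes cultured 2 days after injection of cRNA for cloned rat NaPi-2b.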", "units": {"IC50": "µM"}}
{"smiles": "CN(Cc1ccc(C(=O)Nc2ccc(Br)cc2C(=O)N/N=C/c2cccc(F)c2)cc1)CC(O)c1ccc(O)cc1", "note": "(centres unmarked) [Compound 725, N-[4-Bromo-2-(3-fluoro-benzylidene-hydrazinocarbonyl)-phenyl]-4-({[2-hydroxy-2-(4-hydroxy-phenyl)-ethyl]-methyl-amino}-methyl)-benzamide]", "IC50": 69.4}
{"smiles": "CN(Cc1ccc(C(=O)Nc2ccc(Br)cc2C(=O)N/N=C/c2ccc(Cl)c(C(F)(F)F)c2)cc1)CC(O)c1ccc(O)cc1", "note": "(centres unmarked) [Compound 726, N-[4-Bromo-2-(4-chloro-3-trifluoromethyl-benzylidene-hydrazinocarbonyl)-phenyl]-4-({[2-hydroxy-2-(4-hydroxy-phenyl)-ethyl]-methyl-amino}-methyl)-benzamide]", "IC50": "< 3"}
{"smiles": "Cc1ccc(/C=N/NC(=O)c2cc(Br)ccc2NC(=O)c2ccc(CN3CCN(CC(=O)N4CCOCC4)CC3)cc2)cc1", "note": "[Compound 728, N-[4-Bromo-2-(4-methyl-benzylidene-hydrazinocarbonyl)-phenyl]-4-[4-(2-morpholin-4-yl-2-oxo-ethyl)-piperazin-1-ylmethyl]-benzamide]", "IC50": 20.3}
{"smiles": "Cc1cccc(/C=N/NC(=O)c2cc(Br)ccc2NC(=O)c2ccc(CN3CCN(CC(=O)N4CCOCC4)CC3)cc2)c1", "note": "[Compound 729, N-[4-Bromo-2-(3-methyl-benzylidene-hydrazinocarbonyl)-phenyl]-4-[4-(2-morpholin-4-yl-2-oxo-ethyl)-piperazin-1-ylmethyl]-benzamide]", "IC50": 27.3}
{"smiles": "O=C(Nc1ccc(Br)cc1C(=O)N/N=C/c1ccc(F)cc1)c1ccc(CN2CCN(CC(=O)N3CCOCC3)CC2)cc1", "note": "[Compound 730, N-[4-Bromo-2-(4-fluoro-benzylidene-hydrazinocarbonyl)-phenyl]-4-[4-(2-morpholin-4-yl-2-oxo-ethyl)-piperazin-1-ylmethyl]-benzamide]", "IC50": 15.7}
{"smiles": "O=C(Nc1ccc(Br)cc1C(=O)N/N=C/c1cccc(F)c1)c1ccc(CN2CCN(CC(=O)N3CCOCC3)CC2)cc1", "note": "[Compound 731, N-[4-Bromo-2-(3-fluoro-benzylidene-hydrazinocarbonyl)-phenyl]-4-[4-(2-morpholin-4-yl-2-oxo-ethyl)-piperazin-1-ylmethyl]-benzamide]", "IC50": 19.2}
{"smiles": "COc1cccc(/C=N/NC(=O)c2cc(Br)ccc2NC(=O)c2ccc(CN3CCN(CC(=O)N4CCOCC4)CC3)cc2)c1", "note": "[Compound 732, N-[4-Bromo-2-(3-methoxy-benzylidene-hydrazinocarbonyl)-phenyl]-4-[4-(2-morpholin-4-yl-2-oxo-ethyl)-piperazin-1-ylmethyl]-benzamide]", "IC50": 29.4}
{"smiles": "CCOCCN(CCOCC)Cc1ccc(C(=O)Nc2ccc(Br)cc2C(=O)N/N=C/c2ccc(C)c(C)c2)cc1", "note": "[Compound 733, 4-{[Bis-(2-ethoxy-ethyl)-amino]-methyl}-N-[4-bromo-2-(3,4-dimethyl-benzylidene-hydrazinocarbonyl)-phenyl]-benzamide]", "IC50": "< 10"}
{"smiles": "CCOCCN(CCOCC)Cc1ccc(C(=O)Nc2ccc(Br)cc2C(=O)N/N=C/c2cccc(C)c2)cc1", "note": "[Compound 735, 4-{[Bis-(2-ethoxy-ethyl)-amino]-methyl}-N-[4-bromo-2-(3-methyl-benzylidene-hydrazinocarbonyl)-phenyl]-benzamide]", "IC50": 18.3}
{"molecular_target": "T1, rat NaPi-2b", "assay": "Sodium-dependent phosphate uptake of Xenopus oocytes which expressed NaPi-2b (32P)", "format": "cell-based", "conditions": "phosphate uptake, oocytes expressing rat NaPi-2b; 300 μM, determined from inhibition curve", "in_short": "as §1", "units": {"inhibition at 300 µM": "%"}}
{"smiles": "COc1cccc(/C=N/NC(=O)c2cc(Br)ccc2NC(=O)c2ccc(CN(C)CC(O)c3ccc(O)cc3)cc2)c1", "note": "(centres unmarked) [Compound 727, N-[4-Bromo-2-(3-methoxy-benzylidene-hydrazinocarbonyl)-phenyl]-4-({[2-hydroxy-2-(4-hydroxy-phenyl)-ethyl]-methyl-amino}-methyl)-benzamide]", "inhibition at 300 µM": 67.7}
{"smiles": "CCOCCN(CCOCC)Cc1ccc(C(=O)Nc2ccc(Br)cc2C(=O)N/N=C/c2ccc(C)cc2)cc1", "note": "[Compound 734, 4-{[Bis-(2-ethoxy-ethyl)-amino]-methyl}-N-[4-bromo-2-(4-methyl-benzylidene-hydrazinocarbonyl)-phenyl]-benzamide]", "inhibition at 300 µM": 64.9}
